This note sets out measurements from US11590116B2 (THERAVANCE BIOPHARMA R&D IP, LLC, priority 2019, dated 2023).

The assay deals with T1, recombinant human ALK5 (TGF-βR1) protein (Homo sapiens, UniProt P36897).
T1 construct: purchased Life Technologies PR9075A
T1 sequence (P36897 34-503): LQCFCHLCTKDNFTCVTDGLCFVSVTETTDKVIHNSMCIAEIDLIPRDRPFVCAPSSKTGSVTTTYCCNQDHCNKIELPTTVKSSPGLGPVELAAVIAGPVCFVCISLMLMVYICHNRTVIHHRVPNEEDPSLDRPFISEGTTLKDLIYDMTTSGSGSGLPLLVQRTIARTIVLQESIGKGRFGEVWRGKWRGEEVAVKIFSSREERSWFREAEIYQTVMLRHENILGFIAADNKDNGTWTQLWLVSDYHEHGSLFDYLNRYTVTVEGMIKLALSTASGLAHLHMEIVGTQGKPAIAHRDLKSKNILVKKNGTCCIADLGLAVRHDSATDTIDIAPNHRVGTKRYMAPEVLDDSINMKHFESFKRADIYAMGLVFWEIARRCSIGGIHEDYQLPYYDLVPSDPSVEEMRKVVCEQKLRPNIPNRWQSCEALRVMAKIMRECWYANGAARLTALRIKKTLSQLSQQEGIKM
Nature of the assay: Biochemical ALK5 (TGF-βR1) assay to measure pKi (LANCE Ultra ULight kinase assay). Particulars: apparent pKi from pIC50 by Cheng-Prusoff, read-out: ALK5 pKi (converted). How it is done: The assays were performed in a 384-well plate (24 columns×16 wells/rows). An Echo® 550 Liquid Handler (Labcyte) was used to prepare various intermediate concentrations of compounds of the present disclosure in 100% DMSO. From the intermediate concentrations, a range of concentrations (from 10 μM to 25 pM corresponding to volumes up to 105 nL) were prepared and ejected into a final assay plate to be used to create individual dose response curves for each of the subject compounds. To a separate column within the assay plate, 105 nL of DMSO in each well was used to establish a maximum assay signal.
With a multidrop dispenser, 8 μL of enzyme mixture (1.25× final) was added to each well. […] The plate was then sealed with an adhesive seal and allowed to equilibrate for 60 minutes at room temperature.
Next, 2 μL of 125 μM ATP (5× final, 125 μM ATP prepared in assay buffer with 2 mM DTT) was added to the incubated mixtures, covered with a MicroClime® Environmental Lid (Product No. LLS-0310, Labcyte) and immediately transferred to 37° C. The reactions were allowed to proceed at 37° C. for 60 minutes before terminating with the addition of 10 μL of detection antibody (LANCE® (lanthanide chelate excite) Ultra Europium-anti-phospo-DNA Topoisomerase 2-alpha (Thr1342)) in detection mixture (12 mM EDTA, 4 nM detection antibody prepared in detection buffer (50 mM Tris-HCl, 150 mM NaCl, 0.5% BSA (Fraction V), pH 7.0)) at room temperature. The plate was then read on a Perkin Elmer EnVision Plate Reader using europium specific reader settings with excitation and emission wavelengths set to 320 or 340 nm and 665 nm, respectively.
For dose-response analyses, percent inhibition versus compound concentrations were plotted, and pIC50 values were determined from a 4-parameter robust fit model with GraphPad Prism V5 Software (GraphPad Software, Inc., La Jolla, Calif.). This model obtains pIC50 values by fitting the sigmoidal dose-response (variable slope) equation to the data. Results were expressed as pIC50 (negative logarithm of IC50) and subsequently converted to pKi (negative logarithm of dissociate constant, K) using the Cheng-Prusoff equation. The higher the value of pKi (lower value of Ki), the greater the inhibition of ALK5 activity.
(In TR-FRET formats the signal depends on donor and acceptor labels being close together.)

`Cc1cccc(-c2n[nH]cc2-c2ccc3nccc(C(=O)NCN4CCOCC4)c3n2)n1` [Compound 807, 6-[3-(6-methyl-2-pyridyl)-1H-pyrazol-4-yl]-N-(morpholinomethyl)-1,5-naphthyridine-4-carboxamide]: the Ki is 398 to 3160 pM.
The value for `Cc1cccc(-c2n[nH]cc2-c2ccc3nccc(C(=O)NCCN4CCN(C(C)C)CC4)c3n2)n1` [Compound 808, N-[2-(4-isopropylpiperazin-1-yl)ethyl]-6-[3-(6-methyl-2-pyridyl)-1H-pyrazol-4-yl]-1,5-naphthyridine-4-carboxamide] was 3980 to 31600 pM; that for `Cc1cccc(-c2[nH]cnc2-c2ccc3ncc(N4CCC(NCCSC(CCO)C(=O)O)C4)cc3c2)n1` (centres unmarked) [Compound 720, 4-hydroxy-2-[2-[[1-[6-[5-(6-methyl-2-pyridyl)-1H-imidazol-4-yl]-3-quinolyl]pyrrolidin-3-yl]amino]ethylsulfanyl]butanoic acid] was 39.8 to 316 pM; that for `Cc1cccc(-c2[nH]cnc2-c2ccc3ncc(-c4ncc(C(=O)OC5CCNCC5)s4)cc3c2)n1` [Compound 1022, piperidin-4-yl 2-(6-(5-(6-methylpyridin-2-yl)-1H-imidazol-4-yl)quinolin-3-yl)thiazole-5-carboxylate] was 39.8 to 316 pM.
For the compound `Cc1cccc(-c2n[nH]cc2-c2ccc3nccc(C(=O)NCCCN4CCOCC4)c3n2)n1` [Compound 803, 6-[3-(6-methyl-2-pyridyl)-1H-pyrazol-4-yl]-N-(3-morpholinopropyl)-1,5-naphthyridine-4-carboxamide], the Ki is 398 to 3160 pM.
To `Cc1cccc(-c2[nH]ncc2-c2ccc3nccc(C(=O)O[C@H]4CC[C@](C)(N)CC4)c3c2)n1` [Compound 1135, (4-amino-4-methyl-cyclohexyl) 6-[5-(6-methyl-2-pyridyl)-1H-pyrazol-4-yl]quinoline-4-carboxylate] belongs 3980 to 31600 pM.
The value for `CCOC(=O)[C@H](C)NP(=O)(OCc1cnc2ccc(-c3cn[nH]c3-c3cccc(C)n3)nc2c1)Oc1ccccc1` (stereo partly drawn) [Compound 464, ethyl (2S)-2-[[[6-[5-(6-methyl-2-pyridyl)-1H-pyrazol-4-yl]-1,5-naphthyridin-3-yl]methoxy-phenoxy-phosphoryl]amino]propanoate] was 39.8 to 316 pM; that for `Cc1cccc(-c2[nH]cnc2-c2ccc3ncc(-c4csc(C(=O)OC[C@H]5CC[C@H](N)CC5)c4)cc3c2)n1` [Compound 1245, (4-aminocyclohexyl)methyl 4-[6-[5-(6-methyl-2-pyridyl)-1H-imidazol-4-yl]-3-quinolyl]thiophene-2-carboxylate] was 39.8 to 316 pM.
